These are literature values, as cited in patent publication US20240099995A1, “METHOD OF PREPARING A TOPICAL PHARMACEUTICAL COMPOSITION” (PHEBRA PTY LTD, priority 2021, published 2024).

Read-outs that look alike come from different tables or passages of the source.

Experiment in series [1]: not given
This is another data set of the same source.

For `CCN(CC)CC(=O)Nc1c(C)cccc1C` [lignocaine], the “duration of topical anesthesia” value by setting is: (with adrenaline) 120 to 360 min; (without adrenalin) 30 to 60 min.

As to `CNCC(O)c1ccc(O)c(O)c1` (centres unmarked) [adrenaline], the concentration loss in series [1] (4° C. and above, after 2 days) was 100%; in series [1] (22° C., within 90 minutes) it was 100%. Also, in series [1] (stored in a freezer, acidic and basic conditions), the time stable result is “at least 28 days”.
